Results on 17 molecules are retold here after US8435960B2, “Devices for improved wound management” (Lakewood-Amedex, Inc., priority 1998, dated 2013).

Data set [1] concerns Pseudomonas aeruginosa (Strain Utah 4). The data set can be described thus: Burn wound infection model, subcutaneous (systemic) infection. Type of data set: in vivo, BALB/c female mice.
The subject of a further data set is S. aureus ACC # 13301. The data set can be described thus: Limited nutrient growth study, S. aureus. Type of data set: cell-based. The settings on record: approx. 24 hours; for Inhibition (%): oligonucleotide pH 1.5, 32 A260 units.
For data set [2], the system named is P. aeruginosa ACC # 10145. Kind of data set: Limited nutrient growth study, P. aeruginosa. Type of data set: cell-based. The settings on record: approx. 24 hours; for Inhibition (%): oligonucleotide pH 1.5, 32 A260 units.
The subject of the next data set is S. aureus. Kind of data set: Stationary growth assay, S. aureus. The conditions noted are these: S. aureus 10^7 CFU/ml start, 32 A260 units. Type of data set: cell-based.
Data set [3] concerns Pseudomonas aeruginosa (Strain Utah 4). The data set can be described thus: Burn wound infection model, topical infection and topical treatment. Type of data set: in vivo, BALB/c female mice. The settings on record: for % Survival / No. Survivors/Total: topical infection, topical treatment.
For a further data set, the system named is Staphylococcal furuncle. Kind of data set: Treatment of Staphylococcal furuncle in a human subject. Type of data set: in vivo.
The subject of data set [4] is Pseudomonas aeruginosa. Kind of data set: Topical treatment of outer ear infections in chinchillas. It is filed as in vivo.
The next data set deals with Strep. pyogenes. The data set can be described thus: Treatment of Strep. pyogenes skin infection on a dog. Type of data set: in vivo. The settings on record: cut on abdomen, Neosporin for 3 days, nucleic acid pH 1.5, two treatments separated by 12 hours.
The test system of data set [5] is Pseudomonas aeruginosa. The data set can be described thus: Topical Pseudomonas burn model of infection in immuno-compromised mice (Example 9). The settings on record: topical treatment at 4 hrs. and 8 hrs. post infection, pH 1.5. Type of data set: in vivo.
In data set [6] the test system is Pseudomonas aeruginosa. Kind of data set: Systemic Pseudomonas burn model of infection (Example 9). Type of data set: in vivo, mice.
The test system of a further data set is Strep. mutans. Kind of data set: Stationary growth assay, Strep. mutans. Type of data set: cell-based. The conditions noted are these: 16 A260 units; for CFU/ml: Strep. mutans 10^7 CFU/ml start; for Inhibition (%): Strep. mutans, approx. 24 hours.
The mark [7] stands for this setting: pH of nucleic acid 3, 32 A260 units.
The mark [8] stands for this setting: pH of nucleic acid 4, 32 A260 units.
The mark [9] stands for this setting: pH of nucleic acid 5, 32 A260 units.
Where [10] appears, read: pH of nucleic acid 7, 32 A260 units.
Where [11] appears, read: topical treatment 1800 A/ml, individual mice # 1-3, NG = no growth.
The mark [12] stands for this setting: mice, burn wound infection with 5 LD50 P. aeruginosa, summary of all studies.
The mark [13] stands for this setting: after 16 hours from the initial treatment.

Strand notation (5' to 3'): a small letter for the sugar, then the base; units joined by * are phosphorothioate-linked, units joined directly phosphodiester-linked; [ ] holds rarer units or linkages, { } end groups; capitals alone tell only the bases. [invdT] = inverted (3'-3') thymidine; {BuOH} = butanol end-blocking group; m = 2'-O-methyl Some results are limits rather than exact numbers.

`CO[C@@H]1[C@H](O)[C@@H](COP(=O)(O)O)O[C@H]1n1ccc(=O)[nH]c1=O` [compound 6, 2′-O-methyl Uridine monophosphate]: in [1] (mouse, in vivo), the “# Survivors/Total Animals Tested” value is given as 0/5, the “% Survival” value came to 0% and the therapeutic activity result is recorded as “did not appear to show any therapeutic activity”.
On to “SEQ ID NO: 1: 2′-O-methyl ribonucleotides, phosphodiester linkage, 5′ and 3′ inverted T end-blocked, sequence CGCCATTGG (all 2'-O-methyl, all phosphodiester, 5' [invdT], 3' [invdT], T or U not given here)”, for which the “Inhibition of Growth (%)” value with S. aureus ACC # 13301 (pH of nucleic acid 2, 32 A260 units, A625) was determined as 100%; in the data set on S. aureus ACC # 13301 (setting [7]), 100%; with S. aureus ACC # 13301 (setting [8]), 100%; in the data set on S. aureus ACC # 13301 (setting [9]) it was 16%; in the data set with S. aureus ACC # 13301 (setting [10]) it was 0%; in [2] (pH of nucleic acid 2, 32 A260 units), 100%. Further, the “Inhibition of Growth (%)” value in data set [2] (setting [7]) came to 100%; in [2] (setting [8]), 100%; in data set [2] (setting [9]) it was 0%; in data set [2] (setting [10]) it was 0%. The CFU/ml with S. aureus (pH of nucleic acid 2, approx. 24 hours) is 0 CFU/ml; with S. aureus (pH of nucleic acid 3), 10^3 CFU/ml; with S. aureus (pH of nucleic acid 4) it was 10^6 CFU/ml; in the data set on S. aureus (pH of nucleic acid 5), 10^7 CFU/ml; in the data set with S. aureus (pH of nucleic acid 7), 10^7 CFU/ml.
Consider “Homopolymer, 12 G: GGGGGGGGGGGG, 2′-O-methyl substituted ribonucleotides phosphodiester linked, 3′ and 5′ butanol end-blocking ({BuOH}-mGmGmGmGmGmGmGmGmGmGmGmG-{BuOH})”, for which the “Inhibition (%)” value (in the data set with S. aureus ACC # 13301; in [2]) was 100% each time.
“HO—CH2CH2CH2CH2-ACg•CgC•CAU•Ugg-CH2CH2CH2CH2—OH [B2]”: in data set [1] (mouse, in vivo), the “# Survivors/Total Animals Tested” value is 28/30, the “No. Survivors/Total Animals” value is 5/5 and the survival rate was 100%. The “survival rate (efficacy)” value in [1] (mouse, in vivo, iv) stood at 80%. Besides, the “survival rate (efficacy)” value in [1] (mouse, in vivo, sc) amounted to 40%. Besides, in [3] (concentration 335 A/ml), the “% Survival” value is given as 40% and the “No. Survivors/Total” value was 2/5. For the same molecule, in [3] (concentration 1800 A/ml), the “% Survival” value is reported as 90% and the “No. Survivors/Total” value is recorded as 9/10. Besides, in [3] (setting [11]), the “Microbiological quantitation of tissues, Blood” value is recorded as “devoid of any detectable CFUs”; the “Microbiological quantitation of tissues, Livers” value is “two out of three”; the “Microbiological quantitation of tissues, Spleens” value was “devoid of any detectable CFUs”.
For “Homopolymer, 12 C: CCCCCCCCCCCC, 2′-O-methyl substituted ribonucleotides phosphodiester linked, 3′ and 5′ butanol end-blocking ({BuOH}-mCmCmCmCmCmCmCmCmCmCmCmC-{BuOH})”, the “Inhibition (%)” value (with S. aureus ACC # 13301; in data set [2]) was 100% each time.
As for “Homopolymer, 12 U: UUUUUUUUUUUU, 2′-O-methyl substituted ribonucleotides phosphodiester linked, 3′ and 5′ butanol end-blocking (2'-O-methyl; butanol end caps)”, the “Inhibition (%)” value (in the data set with S. aureus ACC # 13301; in data set [2]) was 100% throughout.
Regarding “HO—CH2CH2CH2CH2-ACg•CgC•CAU•Ugg-CH2CH2CH2CH2—OH [B7]”, in [1] (mouse, in vivo), the “# Survivors/Total Animals Tested” value is on record as 2/5 and the “% Survival” value is on record as 40%. In addition, in [3] (concentration 1800 A/ml), the “% Survival” value worked out at 40% and the “No. Survivors/Total” value is recorded as 2/5.
Regarding “HO—CH2CH2CH2CH2-CgC•CAU—CH2CH2CH2CH2—OH [compound 7]”, in data set [1] (mouse, in vivo), the “# Survivors/Total Animals Tested” value is 2/5 and the “% Survival” value turned out to be 40%.
The like results for “HO—CH2CH2CH2CH2-GGG-CH2CH2CH2CH2—OH [compound 5]” were, in that order, 3/5 and 60%.
Regarding “HO—CH2CH2CH2CH2-G-CH2CH2CH2CH2—OH [compound 3]”, in data set [1] (setting [12]), the “# Survivors/Total Animals Tested” value is recorded as 3/5 and the “% Survival” value amounted to 60%.
In the case of “SEQ ID NO: 9: ACGCGCCATTAT, 2′-O-methyl substituted ribonucleotides, phosphodiester linked, end blocked with an inverted T at both the 5′ and 3′ ends (all 2'-O-methyl, all phosphodiester, 5' [invdT], 3' [invdT], T or U not given here)”, the furuncle size entry in the data set with Staphylococcal furuncle (1.5 cm furuncle, after 8 hours of treatment, 100 μl, 18.9 mMolar in water, pH 1.5) is listed as “approximately 0.5 cm”. In addition, in the data set with Staphylococcal furuncle (setting [13]), the “size of remaining pinkish area of the furuncle” value is less than 0.5 cm and the “swelling, pain, inflammation of furuncle” value is recorded as “virtually no swelling, pain, or inflammation”. The “effectiveness in vehicle mixture (water/ethanol/propylene glycol) compared with water” value with Pseudomonas aeruginosa [4] (otoscopic examination, 2 mMolar in vehicle mixture vs 2.8 mMolar in water) is listed as “slightly more effective”. The “outcome of ear infections by otoscopic examination” value in the data set with Pseudomonas aeruginosa [4] (two daily topical applications, pH 1.5, by day 7 post infection (4 days after treatment began)) is on record as “completely cured”. For the same molecule, in the data set with Strep. pyogenes, the “outcome of Strep. pyogenes skin infection” value is “completely cleared up the infection, swelling, inflammation, and sensitivity to touch”. In the data set on Pseudomonas aeruginosa [5] (cyclophosphamide-treated mice, 10^9 CFU topically on burn), the “survival of treated animals” value is 100%. The “systemic Pseudomonas infection in treated animals” value in the data set on Pseudomonas aeruginosa [5] was “free of systemic Pseudomonas infections”. The “survival of treated mice” value in the data set on Pseudomonas aeruginosa [6] (10^6 or 10^7 CFU S.C. after burn, treatment I.V. (40% of dose) and S.C., 40 treated mice, pH 1.5) was 100%. Also, the “Pseudomonas bacteria in the spleen, liver, or blood” value with Pseudomonas aeruginosa [6] (treated surviving mice sacrificed and checked for sepsis) was “not detected”.
For the molecule “Homopolymer, 12 A: AAAAAAAAAAAA, 2′-O-methyl substituted ribonucleotides phosphodiester linked, 3′ and 5′ butanol end-blocking ({BuOH}-mAmAmAmAmAmAmAmAmAmAmAmA-{BuOH})”, the “Inhibition (%)” value (with S. aureus ACC # 13301; in [2]) was 100% throughout.
“114.6: 2′-O-methyl substituted ribonucleotides phosphodiester linked with 5′ and 3′ inverted T end-blocking, sequence CGCCAT”: in the data set on Strep. mutans (pH 3), the CFU/ml came out at 0 CFU/ml and the “Inhibition (%)” value is listed as 100%. Besides, in the data set with Strep. mutans (pH 7), the CFU/ml was 10^7 CFU/ml and the “Inhibition (%)” value came out at 0%.
“HO—CH2CH2CH2CH2—UUU—CH2CH2CH2CH2—OH [compound 4]”: in data set [1] (mouse, in vivo), the “# Survivors/Total Animals Tested” value is reported as 2/5 and the “% Survival” value turned out to be 40%.
Consider “114.21: 2′-O-methyl substituted ribonucleotides phosphodiester linked with 5′ and 3′ inverted T end-blocking, sequence GGAACGCGCCATTGGTATATC (all 2'-O-methyl, all phosphodiester, 5' [invdT], 3' [invdT], T or U not given here)”, for which, in the data set on Strep. mutans (pH 3), the CFU/ml is 0 CFU/ml and the “Inhibition (%)” value was 100%. Further, in the data set with Strep. mutans (pH 7), the CFU/ml is recorded as 10^7 CFU/ml and the “Inhibition (%)” value came out at 0%.
“HO—CH2CH2CH2CH2-AUG-CH2CH2CH2CH2—OH [compound 2]”: in [1] (mouse, in vivo), the “# Survivors/Total Animals Tested” value is recorded as 3/5 and the “% Survival” value was 60%.
Consider “dihydroxydibutyldiphophate 2′-O-methyl uridine [BUB]”, for which, in data set [1] (mouse, in vivo), the “# Survivors/Total Animals Tested” value is 7/8 and the “% Survival” value is on record as 87.5%.
